From patent US9556099B2 (INDENA S.P.A., priority 2013, dated 2017)

Legend:
[1] = Plasma and brain levels in mice treated subacutely by intraperitoneal administration (HPLC/MS/MS); conditions: 20 mg/kg i.p. twice a day for 4 days, mean±S.E. of 4 animals
Protocol: In mice treated subacutely (twice a day for 4 days) by intraperitoneal administration at the dose of 20 mg/kg of the products according to the invention, their brain and plasma levels were determined by a combined HPLC/MS/MS analysis technique developed on the basis of a method already described by Keller J. H. et al. (Anal. Chem. 75, 6084, 2003).
Each value is the mean±S.E. of 4 animals. Time 0 corresponds to the 14th hour after the previous treatment

[2] = system: neuropathological damage induced by Aβ fibrils; assay: Neuropathological damage induced by Aβ fibrils in vivo (stereotactic injection into the dorsal hippocampus); conditions: male rats, product co-injected with 80 μg Aβ fibrils into the dorsal hippocampus; for Density of reactive astrocytes: control 11 ± 4, fibrils only 39 ± 7; for Measurement of astrocyte soma: control 101 ± 18, fibrils only 310 ± 16
Protocol: To evaluate the potential neuroprotective effect of the products according to the invention, male rats were treated stereotactically in the dorsal hippocampus with 80 μg of Aβ fibrils in the presence or absence of the products.

[3] = time 0 h (14th hour after the previous treatment)

Row | Compound | Brain [1, 3] | Brain/Plasma [1, 3] | Plasma [1, 3] | Brain ([1]; time 1 h) | Brain/Plasma ([1]; time 1 h) | Plasma ([1]; time 1 h) | Brain ([1]; time 2 h) | Brain/Plasma ([1]; time 2 h) | Plasma ([1]; time 2 h) | Brain ([1]; time 4 h) | Brain/Plasma ([1]; time 4 h) | Plasma ([1]; time 4 h) | Brain ([1]; time 6 h) | Brain/Plasma ([1]; time 6 h) | Plasma ([1]; time 6 h) | Density of reactive astrocytes [2] | Measurement of astrocyte soma [2]
1 | CC(C)=CCC[C@]1(C)[C@@H](CC=C(C)C)C[C@@]2(CC=C(C)C)C(=O)[C@]1(C(=O)C(C)C)C(=O)C(CC=C(C)C)=C2O [Hyperforin, hyperforin] | 15.2 ± 16.1 ng/g | 1.89 ± 0.91% | 624.5 ± 81.8 ng/mL | 21.1 ± 7.4 ng/g | 1.24 ± 0.75% | 1547.2 ± 226.6 ng/mL | 23.2 ± 7.8 ng/g | 1.32 ± 0.82% | 1421.3 ± 235.4 ng/mL | 32.3 ± 8.1 ng/g | 1.91 ± 0.91% | 1275.4 ± 212.8 ng/mL | 35.6 ± 8.8 ng/g | 2.12 ± 1.12% | 1192.6 ± 196.5 ng/mL | 37 ± 6 GFAP^+ cell./4 × 10^3 μm^2 | 306 ± 14 arbitrary unit
2 | deisopropyl-dehydro tetrahydro adhyperforin | – | – | – | – | – | – | – | – | – | – | – | – | – | – | – | 24 ± 4 GFAP^+ cell./4 × 10^3 μm^2 | 117 ± 9 arbitrary unit
